One assay has as its target T1, recombinant human mPGES-1 (Homo sapiens, UniProt O14684).
T1 construct: made in house; host or cells: Rosetta E. coli (microsomal/membrane fraction)
T1 sequence (O14684 1-152): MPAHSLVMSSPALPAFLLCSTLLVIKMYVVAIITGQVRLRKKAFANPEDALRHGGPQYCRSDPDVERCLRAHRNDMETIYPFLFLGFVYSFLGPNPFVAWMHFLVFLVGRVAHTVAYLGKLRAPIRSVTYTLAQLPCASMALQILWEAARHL
Kind of assay: mPGES-1 inhibition test (microsomes, PGH2 substrate, HTRF detection of PGE2). The format is biochemical. Conditions: inhibition of mPGES-1 at 1 μM (marked in cell). The procedure, abridged:
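E. coli microsomal enzyme, 0.1 M KPi pH 7.4 + 2.5 mM GSH; cpd (DMSO) 25 min RT; PGH2 1 min; acidic FeCl2 stop. Dilute 750-fold, HTRF (d2/Eu-cryptate anti-PGE2, overnight 4 °C), 665/620 ratio vs PGE2 standard curve.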
Regarding `O=C(Nc1ccc(Cl)c(C(F)(F)F)c1)c1ccc2[nH]c(Nc3c(Cl)cccc3Cl)nc2c1` [Example 282, 2-(2,6-Dichloro-phenylamino)-1H-benzimidazole-5-carboxylic acid (4-chloro-3-trifluoromethyl-phenyl)-amide], the inhibition (usually the change of the read-out against control, counted positive when it falls) at 1 µM came out at 100%.

Still in this assay, the particulars now being: inhibition of mPGES-1 at 10 μM.
With `Cn1c(Nc2c(Cl)cccc2Cl)nc2cc(C(=O)Nc3cc(C(C)(C)C)ccn3)ccc21` [Example 464, N-(4-tert.-Butylpyridin-2-yl)-2-(2,6-dichlorophenylamino)-1-methyl-1H-benzimidazole-5-carboxamide], the inhibition at 10 µM came to 99%.

With `O=C(Nc1ccc(Br)cc1)c1ccc2[nH]c(Nc3c(Cl)cccc3OC(F)(F)F)nc2c1` [Example 557, N-(4-Bromophenyl)-2-(2-chloro-6-(trifluoromethoxy)phenylamino)-1H-benzimidazole-5-carboxamide], the inhibition at 10 µM stood at 69%.

`COc1cc2[nH]c(Nc3c(Cl)cccc3Cl)nc2cc1C(=O)Nc1ccc(Br)cc1` [Example 371, N-(4-Bromophenyl)-2-(2,6-dichlorophenylamino)-6-methoxy-1H-benzimidazole-5-carboxamide]: the inhibition at 10 µM came to 100%.

Regarding `Cn1c(Nc2c(Cl)cccc2Cl)nc2cc(C(=O)NC3CCCCC3)c(F)cc21` [Example 159, 2-(2,6-Dichloro-phenylamino)-6-fluoro-1-methyl-1H-benzimidazole-5-carboxylic acid cyclohexylamide], the inhibition at 10 µM is 98%.

Consider `Cc1ccnc(NC(=O)c2ccc3[nH]c(Nc4c(Cl)cccc4Cl)nc3c2)c1` [Example 116, 2-(2,6-Dichloro-phenylamino)-1H-benzimidazole-5-carboxylic acid (4-methyl-pyridin-2-yl)-amide], for which the inhibition at 10 µM is 92%.

For the molecule `Cc1ccc(Nc2nc3cc(C(=O)Nc4ccc(Br)cc4)ccc3n2C)c(Cl)c1` [Example 512, N-(4-Bromophenyl)-2-(2-chloro-4-methylphenylamino)-1-methyl-1H-benzimidazole-5-carboxamide], the inhibition at 10 µM is 99%.

As to `Cc1cc2[nH]c(Nc3c(Cl)cccc3Cl)nc2cc1C(=O)NC1CCC(C(C)(C)C)CC1` (stereo not drawn) [compound 148], the inhibition at 10 µM turned out to be 100%.

Regarding `O=C(N[C@H]1CC[C@H](C(F)(F)F)CC1)c1cc2nc(Nc3c(F)ccc(F)c3Cl)[nH]c2cc1OCC(F)(F)F` [Example 594, 2-(2-Chloro-3,6-difluoro-phenylamino)-N-(4-trans-trifluoromethyl-cyclohex-1-yl)-6-(2,2,2-trifluorethoxy)-1H-benzimidazole-5-carboxamide], the inhibition at 10 µM was found to be 94%.

With `O=C(NCCc1cccnc1)c1ccc2[nH]c(Nc3c(Cl)cccc3Cl)nc2c1` [Example 232, 2-(2,6-Dichloro-phenylamino)-1H-benzimidazole-5-carboxylic acid (2-pyridin-3-yl-ethyl)-amide], the inhibition at 10 µM was 91%.

`COc1ccc(NC(=O)c2ccc3nc(Nc4c(Cl)cccc4Cl)[nH]c3c2)nc1` [Example 195, 2-(2,6-Dichloro-phenylamino)-3H-benzimidazole-5-carboxylic acid (5-methoxy-pyridin-2-yl)-amide]: the inhibition at 10 µM amounted to 92%.

Consider `O=C(NC1CCCC(O)C1)c1ccc2[nH]c(Nc3c(Cl)cccc3Cl)nc2c1` (stereo not drawn) [Example 226, 2-(2,6-Dichloro-phenylamino)-1H-benzimidazole-5-carboxylic acid (3-hydroxy-cyclohexyl)-amide], for which the inhibition at 10 µM was 64%.

Consider `Cn1c(Nc2c(Cl)cccc2Cl)nc2cc(C(=O)Nc3ccccc3)ccc21` [Example 20, 2-(2,6-Dichloro-phenylamino)-1-methyl-1H-benzimidazole-5-carboxylic acid phenylamide], for which the inhibition at 10 µM is 97%.

Turning to `COc1cc2[nH]c(Nc3c(Cl)cccc3Cl)nc2cc1C(=O)Nc1ccc(C(F)(F)F)cn1` [Example 633, 2-(2,6-Dichlorophenylamino)-N-(5-trifluoromethyl-pyridin-2-yl)-6-methoxy-1H-benzimidazole-5-carboxamide], the inhibition at 10 µM amounted to 99%.

Turning to `Cc1cc(C(=O)Nc2ccc(Br)cc2)cc2nc(Nc3c(Cl)cccc3Cl)[nH]c12` [Example 51, 2-(2,6-Dichloro-phenylamino)-7-methyl-1H-benzimidazole-5-carboxylic acid (4-bromo-phenyl)-amide], the inhibition at 10 µM came out at 89%.

Take `O=C(Nc1cc(Cl)c(Cl)c(Cl)c1)c1ccc2[nH]c(Nc3c(Cl)cccc3Cl)nc2c1` [Example 287, 2-(2,6-Dichloro-phenylamino)-1H-benzimidazole-5-carboxylic acid (3,4,5-trichloro-phenyl)-amide]: the inhibition at 10 µM worked out at 92%.

Regarding `Cn1c(Nc2c(Cl)cccc2Cl)nc2cc(C(=O)NCc3ccncc3)ccc21` [Example 262, 2-(2,6-Dichloro-phenylamino)-1-methyl-1H-benzimidazole-5-carboxylic acid (2-pyridin-4-yl-methyl)-amide], the inhibition at 10 µM stood at 61%.

As to `CCOc1cc2[nH]c(Nc3c(Cl)ccc(Cl)c3F)nc2cc1C(=O)NC1CCC(C)(C)CC1` [Example 600, 2-(3,6-Dichloro-2-fluoro-phenylamino)-N-(4,4-dimethyl-cyclohexyl)-6-ethoxy-1H-benzimidazole-5-carboxamide], the inhibition at 10 µM turned out to be 94%.

For `O=C(Nc1ccc(Br)cc1)c1ccc2[nH]c(Nc3ccccc3Br)nc2c1` [Example 279, 2-(2-Bromo-phenylamino)-1H-benzimidazole-5-carboxylic acid (4-bromo-phenyl)-amide], the inhibition at 10 µM was found to be 97%.

As to `O=C(N[C@H]1CC[C@H](C(F)(F)F)CC1)c1cc2nc(Nc3c(Cl)cc(F)cc3Cl)[nH]c2cc1OCC(F)F` [Example 587, 2-(2,6-Dichloro-4-fluoro-phenylamino)-N-(trans-4-trifluoromethyl-cyclohex-1-yl)-6-(2,2-difluoroethoxy)-1H-benzimidazole-5-carboxamide], the inhibition at 10 µM turned out to be 97%.

As for `CC(C)(C)[C@H]1CC[C@@H](NC(=O)c2cc3nc(Nc4c(F)cccc4Cl)[nH]c3cc2F)CC1` [Example 378, N-((1s,4s)-4-tert.-Butylcyclohexyl)-2-(2-chloro-6-fluorophenylamino)-6-fluoro-1H-benzimidazole-5-carboxamide], the inhibition at 10 µM is 100%.

On to `Cc1cc(C)nc(NC(=O)c2cc3nc(Nc4c(Cl)cccc4Cl)n(C)c3cc2F)c1` [Example 128, 2-(2,6-Dichloro-phenylamino)-6-fluoro-1-methyl-1H-benzimidazole-5-carboxylic acid (4,6-dimethyl-pyridin-2-yl)-amide], for which the inhibition at 10 µM is 100%.

Regarding `COCCCn1c(Nc2c(Cl)cccc2Cl)nc2cc(C(=O)Nc3cc(Cl)ccn3)ccc21` [Example 274, 2-(2,6-Dichloro-phenylamino)-1-(3-methoxy-propyl)-1H-benzimidazole-5-carboxylic acid (4-chloro-pyridin-2-yl)-amide], the inhibition at 10 µM was found to be 100%.

As to `CCCCCCNC(=O)c1cc2nc(Nc3c(Cl)cccc3Cl)n(C)c2cc1F` [Example 373, 2-(2,6-Dichlorophenylamino)-6-fluoro-N-hexyl-1-methyl-1H-benzimidazole-5-carboxamide], the inhibition at 10 µM was 100%.

Consider `CCc1ccc(C)nc1NC(=O)c1ccc2[nH]c(Nc3c(Cl)cccc3Cl)nc2c1` [Example 558, 2-(2,6-Dichlorophenylamino)-N-(3-ethyl-6-methylpyridin-2-yl)-1H-benzimidazole-5-carboxamide], for which the inhibition at 10 µM amounted to 77%.

For `O=C(Nc1nc2c(s1)CCC2)c1ccc2[nH]c(Nc3c(Cl)cccc3Cl)nc2c1` [Example 78, 2-(2,6-Dichloro-phenylamino)-1H-benzimidazole-5-carboxylic acid (5,6-dihydro-4H-cyclopentathiazol-2-yl)-amide], the inhibition at 10 µM stood at 90%.

For the molecule `COc1cc2nc(Nc3c(Cl)cccc3Cl)[nH]c2cc1C(=O)NCc1ncccc1C` [Example 507, 2-(2,6-Dichlorophenylamino)-6-methoxy-N-((3-methylpyridin-2-yl)-methyl)-1H-benzimidazole-5-carboxamide], the inhibition at 10 µM was 98%.

With `O=C(Nc1cccc(Cl)c1)c1cc2nc(Nc3c(Cl)ccc(Cl)c3F)[nH]c2cc1F` [Example 598, 2-(3,6-Dichloro-2-fluoro-phenylamino)-N-(3-chlorphenyl)-6-fluoro-1H-benzimidazole-5-carboxamide], the inhibition at 10 µM was 100%.

Take `CCc1cccc(CC)c1Nc1nc2cc(C(=O)Nc3ccc(Br)cc3)ccc2[nH]1` [Example 114, 2-(2,6-Diethyl-phenylamino)-1H-benzimidazole-5-carboxylic acid (4-bromo-phenyl)-amide]: the inhibition at 10 µM is 80%.

For `Cc1cccc(C)c1Nc1nc2cc(C(=O)Nc3ccccc3)ccc2[nH]1` [Example 13, 2-(2,6-Dimethyl-phenylamino)-1H-benzimidazole-5-carboxylic acid-phenylamide], the inhibition at 10 µM is 100%.

On to `CC1(C)CCC(NC(=O)c2ccc3[nH]c(Nc4c(Cl)cccc4Cl)nc3c2)CC1` [Example 64, 2-(2,6-Dichloro-phenylamino)-1H-benzimidazole-5-carboxylic acid (4,4-dimethyl-cyclohexyl)-amide], for which the inhibition at 10 µM worked out at 97%.

Consider `COc1cc2[nH]c(Nc3c(Cl)cccc3Cl)nc2cc1C(=O)N[C@H]1CC[C@H](C(F)(F)F)CC1` [Example 376, 2-(2,6-Dichlorophenylamino)-6-methoxy-N-((1r,4r)-4-trifluoromethyl-cyclohexyl)-1H-benzimidazole-5-carboxamide], for which the inhibition at 10 µM stood at 100%.

`O=C(NCc1ccc(Cl)cc1)c1ccc2[nH]c(Nc3c(Cl)cccc3Cl)nc2c1` [Example 309, 2-(2,6-Dichloro-phenylamino)-1H-benzimidazole-5-carboxylic acid 4-chloro-benzylamide]: the inhibition at 10 µM stood at 98%.

These data come from patent US8916599B2, “1H-benz imidazole-5-carboxamides as anti-inflammatory agents” (Orexo AB, priority 2008, dated 2014).
